Source: the supplement of paper PMC10307832

Assays:
Test in all cases: relative viability (nuclei count vs DMSO), 5 days (fraction); higher = more cells survive
[1] = compound: OCc1c[nH]c2ccccc12 [Indole-3-carbinol] + Nc1ncn([C@H]2C[C@H](O)[C@@H](CO)O2)c(=O)n1 [Decitabine] (partner 2 µM)
In short: (§1)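 Values are medians from duplicate plates. Each reflects relative viability, defined as the nuclei count of treated wells over that of vehicle wells. Lung cancer cell lines in 1536-well plates were pin-tool dosed one day after seeding with one drug alone or with a fixed anchor-drug dose plus five library-drug doses (not always all listed) in √10 steps, then fixed, stained and imaged at 4× after 5 days.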

[2] = compound: OCc1c[nH]c2ccccc12 [Indole-3-carbinol] + Cc1cc(Nc2cc(N3CCN(C)CC3)nc(Sc3ccc(NC(=O)C4CC4)cc3)n2)n[nH]1 [Tozasertib] (partner 0.1 µM)
In short: as §1

[3] = compound: OCc1c[nH]c2ccccc12 [Indole-3-carbinol] + Nc1nc2[nH]cc(CCc3ccc(C(=O)N[C@@H](CCC(=O)O)C(=O)O)cc3)c2c(=O)[nH]1 [Pemetrexed] (partner 0.2 µM)
In short: as §1

[4] = compound: OCc1c[nH]c2ccccc12 [Indole-3-carbinol] + CC(=O)c1c(C)c2cnc(Nc3ccc(N4CCNCC4)cn3)nc2n(C2CCCC2)c1=O [Palbociclib] (partner 0.5 µM)
In short: as §1

[5] = compound: OCc1c[nH]c2ccccc12 [Indole-3-carbinol] + COc1cccc2cc(-c3nc([C@H]4CC[C@H](C(=O)O)CC4)n4ncnc(N)c34)[nH]c12 [OSI-027] (partner 0.5 µM)
In short: as §1

[6] = compound: OCc1c[nH]c2ccccc12 [Indole-3-carbinol] + O=C(CCCCCCC(=O)Nc1ccccc1)NO [Vorinostat] (partner 1 µM)
In short: as §1

[7] = compound: OCc1c[nH]c2ccccc12 [Indole-3-carbinol] + NC(=O)Nc1cc(-c2cccc(F)c2)sc1C(=O)N[C@H]1CCCNC1 [AZD7762] (partner 0.2 µM)
In short: as §1

[8] = compound: OCc1c[nH]c2ccccc12 [Indole-3-carbinol] + CC(=O)Nc1cccc(-n2c(=O)n(C3CC3)c(=O)c3c(Nc4ccc(I)cc4F)n(C)c(=O)c(C)c32)c1 [Trametinib] (partner 0.02 µM)
In short: as §1

[9] = compound: OCc1c[nH]c2ccccc12 [Indole-3-carbinol] + O=C(c1cc(Cc2n[nH]c(=O)c3ccccc23)ccc1F)N1CCN(C(=O)C2CC2)CC1 [Olaparib] (partner 8 µM)
In short: as §1

[10] = compound: OCc1c[nH]c2ccccc12 [Indole-3-carbinol]
In short: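 A plate was accepted only when its control CV was below 25% and the cells had doubled at least once. Viability is defined from nuclear counts as treated wells divided by vehicle wells, with the median taken across plates. That median covers lung cancer cell lines grown in 1536-well plates, dosed by pinning at five √10-spaced library-drug concentrations, and counted in MetaXpress from 4× Hoechst images after 5 days.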

[11] = compound: OCc1c[nH]c2ccccc12 [Indole-3-carbinol] + N=C(N)NC(=N)NCCc1ccccc1 [Phenformin] (partner 250 µM)
In short: as §1

[12] = compound: OCc1c[nH]c2ccccc12 [Indole-3-carbinol] + CCNC(=O)c1noc(-c2cc(C(C)C)c(O)cc2O)c1-c1ccc(CN2CCOCC2)cc1 [Luminespib] (partner 0.01 µM)
In short: as §1

[13] = compound: OCc1c[nH]c2ccccc12 [Indole-3-carbinol] + Cc1nc(Nc2ncc(C(=O)Nc3c(C)cccc3Cl)s2)cc(N2CCN(CCO)CC2)n1 [Dasatinib] (partner 0.075 µM)
In short: as §1

[14] = compound: OCc1c[nH]c2ccccc12 [Indole-3-carbinol] + COc1cc2c(Oc3ccc(NC(=O)C4(C(=O)Nc5ccc(F)cc5)CC4)cc3F)ccnc2cc1OCCCN1CCOCC1 [Foretinib] (partner 0.25 µM)
In short: as §1

NCI-H1648
relative viability ([1]; first compound 0.253 µM): 0.482
relative viability ([1]; first compound 0.8 µM): 0.434
relative viability ([1]; first compound 2.53 µM): 0.598
relative viability ([1]; first compound 8 µM): 0.499
relative viability ([2]; first compound 0.253 µM): 0.835
relative viability ([2]; first compound 0.8 µM): 0.488
relative viability ([2]; first compound 2.53 µM): 0.439
relative viability ([2]; first compound 8 µM): 0.473
relative viability ([3]; first compound 0.253 µM): 0.663
relative viability ([3]; first compound 0.8 µM): 0.745
relative viability ([3]; first compound 2.53 µM): 0.822
relative viability ([3]; first compound 8 µM): 0.715
relative viability ([4]; first compound 0.253 µM): 0.31
relative viability ([4]; first compound 0.8 µM): 0.248
relative viability ([4]; first compound 2.53 µM): 0.296
relative viability ([4]; first compound 8 µM): 0.289
relative viability ([5]; first compound 0.253 µM): 0.258
relative viability ([5]; first compound 0.8 µM): 0.235
relative viability ([5]; first compound 2.53 µM): 0.272
relative viability ([5]; first compound 8 µM): 0.242
relative viability ([6]; first compound 0.253 µM): 0.301
relative viability ([6]; first compound 0.8 µM): 0.825
relative viability ([6]; first compound 2.53 µM): 0.333
relative viability ([6]; first compound 8 µM): 0.41
relative viability ([7]; first compound 0.253 µM): 0.555
relative viability ([7]; first compound 0.8 µM): 0.613
relative viability ([7]; first compound 2.53 µM): 0.773
relative viability ([7]; first compound 8 µM): 0.637
relative viability ([8]; first compound 0.253 µM): 0.486
relative viability ([8]; first compound 0.8 µM): 0.423
relative viability ([8]; first compound 2.53 µM): 0.59
relative viability ([8]; first compound 8 µM): 0.521
relative viability ([9]; first compound 0.253 µM): 1.27
relative viability ([9]; first compound 0.8 µM): 0.69
relative viability ([9]; first compound 2.53 µM): 0.868
relative viability ([9]; first compound 8 µM): 0.572
relative viability ([10]; 0.253 µM): 1.07
relative viability ([10]; 0.8 µM): 0.846
relative viability ([10]; 2.53 µM): 0.911
relative viability ([10]; 8 µM): 0.949

NCI-H2342
relative viability ([11]; first compound 0.253 µM): 0.617
relative viability ([11]; first compound 0.8 µM): 0.608
relative viability ([11]; first compound 2.53 µM): 0.572
relative viability ([11]; first compound 8 µM): 0.516
relative viability ([1]; first compound 0.253 µM): 0.822
relative viability ([1]; first compound 0.8 µM): 0.743
relative viability ([1]; first compound 2.53 µM): 0.765
relative viability ([1]; first compound 8 µM): 0.765
relative viability ([2]; first compound 0.253 µM): 0.516
relative viability ([2]; first compound 0.8 µM): 0.575
relative viability ([2]; first compound 2.53 µM): 0.453
relative viability ([2]; first compound 8 µM): 0.405
relative viability ([3]; first compound 0.253 µM): 0.757
relative viability ([3]; first compound 0.8 µM): 0.738
relative viability ([3]; first compound 2.53 µM): 0.751
relative viability ([3]; first compound 8 µM): 0.742
relative viability ([4]; first compound 0.253 µM): 0.516
relative viability ([4]; first compound 0.8 µM): 0.516
relative viability ([4]; first compound 2.53 µM): 0.498
relative viability ([4]; first compound 8 µM): 0.535
relative viability ([5]; first compound 0.253 µM): 0.605
relative viability ([5]; first compound 0.8 µM): 0.585
relative viability ([5]; first compound 2.53 µM): 0.569
relative viability ([5]; first compound 8 µM): 0.572
relative viability ([6]; first compound 0.253 µM): 0.802
relative viability ([6]; first compound 0.8 µM): 0.743
relative viability ([6]; first compound 2.53 µM): 0.903
relative viability ([6]; first compound 8 µM): 0.712
relative viability ([7]; first compound 0.253 µM): 0.576
relative viability ([7]; first compound 0.8 µM): 0.455
relative viability ([7]; first compound 2.53 µM): 0.456
relative viability ([7]; first compound 8 µM): 0.453
relative viability ([12]; first compound 0.253 µM): 0.867
relative viability ([12]; first compound 0.8 µM): 0.759
relative viability ([12]; first compound 2.53 µM): 0.752
relative viability ([12]; first compound 8 µM): 0.74
relative viability ([13]; first compound 0.253 µM): 0.355
relative viability ([13]; first compound 0.8 µM): 0.323
relative viability ([13]; first compound 2.53 µM): 0.317
relative viability ([13]; first compound 8 µM): 0.285
relative viability ([8]; first compound 0.253 µM): 0.824
relative viability ([8]; first compound 0.8 µM): 0.931
relative viability ([8]; first compound 2.53 µM): 0.866
relative viability ([8]; first compound 8 µM): 0.764
relative viability ([14]; first compound 0.253 µM): 1.12
relative viability ([14]; first compound 0.8 µM): 1.04
relative viability ([14]; first compound 2.53 µM): 1.06
relative viability ([14]; first compound 8 µM): 0.999
relative viability ([9]; first compound 0.253 µM): 0.452
relative viability ([9]; first compound 0.8 µM): 0.447
relative viability ([9]; first compound 2.53 µM): 0.508
relative viability ([9]; first compound 8 µM): 0.512
relative viability ([10]; 0.253 µM): 1.08
relative viability ([10]; 0.8 µM): 0.907
relative viability ([10]; 2.53 µM): 1.01
relative viability ([10]; 8 µM): 1.02

SW 900
relative viability ([11]; first compound 0.253 µM): 0.81
relative viability ([11]; first compound 0.8 µM): 0.634
relative viability ([11]; first compound 2.53 µM): 0.576
relative viability ([11]; first compound 8 µM): 0.455
relative viability ([1]; first compound 0.253 µM): 0.418
relative viability ([1]; first compound 0.8 µM): 0.376
relative viability ([1]; first compound 2.53 µM): 0.483
relative viability ([1]; first compound 8 µM): 0.405
relative viability ([2]; first compound 0.253 µM): 0.548
relative viability ([2]; first compound 0.8 µM): 0.726
relative viability ([2]; first compound 2.53 µM): 0.616
relative viability ([2]; first compound 8 µM): 0.548
relative viability ([3]; first compound 0.253 µM): 0.49
relative viability ([3]; first compound 0.8 µM): 0.443
relative viability ([3]; first compound 2.53 µM): 0.519
relative viability ([3]; first compound 8 µM): 0.495
relative viability ([4]; first compound 0.253 µM): 0.557
relative viability ([4]; first compound 0.8 µM): 0.501
relative viability ([4]; first compound 2.53 µM): 0.589
relative viability ([4]; first compound 8 µM): 0.527
relative viability ([5]; first compound 0.253 µM): 0.574
relative viability ([5]; first compound 0.8 µM): 0.706
relative viability ([5]; first compound 2.53 µM): 0.592
relative viability ([5]; first compound 8 µM): 0.599
relative viability ([6]; first compound 0.253 µM): 0.556
relative viability ([6]; first compound 0.8 µM): 0.453
relative viability ([6]; first compound 2.53 µM): 0.573
relative viability ([6]; first compound 8 µM): 0.622
relative viability ([7]; first compound 0.253 µM): 0.625
relative viability ([7]; first compound 0.8 µM): 0.619
relative viability ([7]; first compound 2.53 µM): 0.705
relative viability ([7]; first compound 8 µM): 0.624
relative viability ([12]; first compound 0.253 µM): 0.186
relative viability ([12]; first compound 0.8 µM): 0.155
relative viability ([12]; first compound 2.53 µM): 0.169
relative viability ([12]; first compound 8 µM): 0.166
relative viability ([13]; first compound 0.253 µM): 0.837
relative viability ([13]; first compound 0.8 µM): 0.79
relative viability ([13]; first compound 2.53 µM): 0.438
relative viability ([13]; first compound 8 µM): 0.586
relative viability ([8]; first compound 0.253 µM): 0.866
relative viability ([8]; first compound 0.8 µM): 0.867
relative viability ([8]; first compound 2.53 µM): 0.82
relative viability ([8]; first compound 8 µM): 0.992
relative viability ([14]; first compound 0.253 µM): 0.796
relative viability ([14]; first compound 0.8 µM): 1.05
relative viability ([14]; first compound 2.53 µM): 0.877
relative viability ([14]; first compound 8 µM): 0.819
relative viability ([9]; first compound 0.253 µM): 0.983
relative viability ([9]; first compound 0.8 µM): 1.37
relative viability ([9]; first compound 2.53 µM): 0.883
relative viability ([9]; first compound 8 µM): 0.899
relative viability ([10]; 0.253 µM): 0.922
relative viability ([10]; 0.8 µM): 0.772
relative viability ([10]; 2.53 µM): 0.903
relative viability ([10]; 8 µM): 0.764
